# Values of other authors, collected in US12569571B2, “Salt responsive nanogels and nanoparticles” (HOWARD UNIVERSITY, priority 2016, dated 2026).
# Conditions: studies have shown
smiles,measurement,value
CNC [dimethylamine],pKa (apparent pKa for PEI),about 10
